Data as given in patent US20240269298A1, “PHOSPHONYL DERIVATIVE, AND COMPOSITION AND PHARMACEUTICAL APPLICATION THEREOF” (XIZANG HAISCO PHARMACEUTICAL CO., LTD., priority 2021, published 2024).

Biological target: T1, EGFR protein in NCI-H1975 EGFR-L858R-T790M-C797S cells (Homo sapiens, UniProt P00533, C797S/L858R/T790M)
T1 construct: expressed in transfected cells; host or cells: NCI-H1975 EGFR-L858R-T790M-C797S (kept under hygromycin selection)
Test: Degradation activity on EGFR protein in NCI-H1975 EGFR-L858R-T790M-C797S cells, Method II (western blot, 48 h)
Format: cell-based
Conditions: 48 h incubation, EGFR protein relative to DMSO control
Description: Protein sample preparation: NCI-H1975 EGFR-L858R-T790M-C797S cells were cultured in an incubator at 37° C. with 5% CO2, and the culture medium was RPMI1640+10% FBS+100 μg/mL hygromycin. The cells in the logarithmic phase were collected, and the cell suspension was adjusted to an appropriate concentration with a hygromycin-free culture medium, plated on a 6-well plate at a density of 350000 cells/well and a volume of 2 mL, and cultured overnight in an incubator at 37° C. with 5% CO2. The next day, the compounds at different concentrations were added. DMSO control wells were provided, wherein the concentration of DMSO in all wells was 0.1%. The 6-well plate was cultured in an incubator at 37° C. with 5% CO2 for 48 h, and then 30 μL of RIPA lysates (Beyotime, Cat. P0013B) containing protease inhibitors (Beyotime, Cat. P0013B) were added. The mixtures were lysed on ice for 30 min. Centrifugation was carried out at 13000 rpm/min at 4° C. for 20 minutes to collect protein supernatant samples, and protein quantification was performed by the BCA method. Western Blot detection samples were prepared.
Western blot detection: 20 μg of protein samples were added to each well, subjected to polyacrylamide gel electrophoresis and transferred to a membrane, and then diluted anti-EGFR (CST, Cat. 4267S) and […] (Kangchen, Cat. KC-5G4) antibodies were added and incubated overnight at 4° C. After washing the membrane, diluted goat anti-rabbit (Licor, Cat. 926-32211) and goat anti-mouse (Licor, Cat. 926-68070) antibodies were added and incubated in the dark for 45 min. Scanning and detection at wavelengths of 700 nm and 800 nm were performed with a far-infrared imaging system (Odyssey).
According to formula (3), the expression level of EGFR protein in the cells relative to the DMSO control group was calculated after incubation with different concentrations of compounds. wherein EGFRcompound was the fluorescence value of EGFR protein after incubation with compounds, and EGFRvehicle was the fluorescence value of EGFR protein in the DMSO control group. Using the Origin 9.2 software, the drug concentration DC50 values when the expression level of EGFR protein was 50% relative to the DMSO control group were calculated.

T1 sequence (P00533 25-1210 T790M/C797S/L858R): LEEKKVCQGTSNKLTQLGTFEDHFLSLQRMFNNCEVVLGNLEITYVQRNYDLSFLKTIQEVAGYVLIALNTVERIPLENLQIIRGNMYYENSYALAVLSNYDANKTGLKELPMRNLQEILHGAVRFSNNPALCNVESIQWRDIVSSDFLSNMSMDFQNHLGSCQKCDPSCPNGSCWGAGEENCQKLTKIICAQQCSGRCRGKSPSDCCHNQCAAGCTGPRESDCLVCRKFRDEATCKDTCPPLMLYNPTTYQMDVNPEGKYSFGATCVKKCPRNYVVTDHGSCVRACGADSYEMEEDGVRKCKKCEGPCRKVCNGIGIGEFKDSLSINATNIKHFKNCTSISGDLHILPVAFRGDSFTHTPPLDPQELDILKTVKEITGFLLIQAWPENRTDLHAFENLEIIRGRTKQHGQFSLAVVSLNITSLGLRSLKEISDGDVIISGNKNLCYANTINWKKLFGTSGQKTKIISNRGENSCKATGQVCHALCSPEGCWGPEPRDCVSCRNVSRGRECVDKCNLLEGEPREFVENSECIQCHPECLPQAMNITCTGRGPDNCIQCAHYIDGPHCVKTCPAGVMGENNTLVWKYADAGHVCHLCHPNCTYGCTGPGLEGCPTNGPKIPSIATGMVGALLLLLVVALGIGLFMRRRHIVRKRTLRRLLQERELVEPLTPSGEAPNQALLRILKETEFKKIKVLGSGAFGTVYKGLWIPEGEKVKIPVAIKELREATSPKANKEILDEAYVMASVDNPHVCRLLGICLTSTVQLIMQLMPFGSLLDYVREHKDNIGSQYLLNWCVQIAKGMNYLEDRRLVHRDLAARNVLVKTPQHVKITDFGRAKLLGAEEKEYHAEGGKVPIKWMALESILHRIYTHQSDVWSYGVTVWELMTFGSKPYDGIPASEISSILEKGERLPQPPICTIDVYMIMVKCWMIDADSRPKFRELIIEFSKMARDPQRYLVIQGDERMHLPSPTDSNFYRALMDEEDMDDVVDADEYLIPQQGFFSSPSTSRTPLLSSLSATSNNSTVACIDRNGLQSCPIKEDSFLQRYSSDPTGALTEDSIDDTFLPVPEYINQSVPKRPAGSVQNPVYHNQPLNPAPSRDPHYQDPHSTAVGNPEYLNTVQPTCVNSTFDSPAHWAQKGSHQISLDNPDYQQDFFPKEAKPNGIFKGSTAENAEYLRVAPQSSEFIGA

| DC50 | Compound |
| --- | --- |
| < 100 nM | COc1cc(N2CCC(CN3CCN(c4ccc5c(c4)C(=O)N(C4CCC(=O)NC4=O)C5=O)CC3)CC2)c(-c2cnn(C)c2)cc1Nc1ncc(Cl)c(Nc2ccc(C3CC3)cc2P(C)(C)=O)n1 (centres unmarked) [Compound 107, 5-(4-((1-(4-((5-chloro-4-((4-cyclopropyl-2-(dimethylphosphoryl)phenyl)amino)pyrimidin-2-yl)amino)-5-methoxy-2-(1-methyl-1H-pyrazol-4-yl)phenyl)piperidin-4-yl)methyl)piperazin-1-yl)-2-(2,6-dioxopiperidin-3-yl)isoindoline-1,3-dione] |
| < 100 nM | COc1cc(N2CCC(CN3CCN(c4ccc5c(c4)C(=O)N(C4CCC(=O)NC4=O)C5=O)CC3)CC2)c(-c2cnn(C)c2)cc1Nc1ncc(Br)c(Nc2ccc(C3CC3)cc2P(C)(C)=O)n1 (centres unmarked) [Compound 106, 5-(4-((1-(4-((5-bromo-4-((4-cyclopropyl-2-(dimethylphosphoryl)phenyl)amino)pyrimidin-2-yl)amino)-5-methoxy-2-(1-methyl-1H-pyrazol-4-yl)phenyl)piperidin-4-yl)methyl)piperazin-1-yl)-2-(2,6-dioxopiperidin-3-yl)isoindoline-1,3-dione] |
